# Laboratory results published in ChEMBL document CHEMBL3046757, “Design, synthesis, and biological evaluation of novel pyridine acid esters of podophyllotoxin and esters of 4-demethylepipodophyllotoxin” (2007).
# Legend:
# Assay type in all cases: functional
# A549 [1] = test: Growth inhibition of Homo sapiens (human) A549 cells at 10^-6 mol/l after 72 hr by MTT assay; details: A549, 72 h, read-out: GI
# A549 [2] = test: Growth inhibition of Homo sapiens (human) A549 cells at 10^-8 mol/l after 72 hr by MTT assay; details: A549, 72 h, read-out: GI
# P388 [3] = test: Growth inhibition of Mus musculus (mouse) P388 cells at 10^-4 mol/l after 72 hr by MTT assay; details: P388, 72 h, read-out: GI
# P388 [4] = test: Growth inhibition of Mus musculus (mouse) P388 cells at 10^-8 mol/l after 72 hr by MTT assay; details: P388, 72 h, read-out: GI
# P388 [5] = test: Growth inhibition of Mus musculus (mouse) P388 cells at 10^-7 mol/l after 72 hr by MTT assay; details: P388, 72 h, read-out: GI
# P388 [6] = test: Growth inhibition of Mus musculus (mouse) P388 cells at 10^-6 mol/l after 72 hr by MTT assay; details: P388, 72 h, read-out: GI
# P388 [7] = test: Growth inhibition of Mus musculus (mouse) P388 cells at 10^-5 mol/l after 72 hr by MTT assay; details: P388, 72 h, read-out: GI
# A549 [8] = test: Growth inhibition of Homo sapiens (human) A549 cells at 10^-5 mol/l after 72 hr by MTT assay; details: A549, 72 h, read-out: GI
# A549 [9] = test: Growth inhibition of Homo sapiens (human) A549 cells at 10^-7 mol/l after 72 hr by MTT assay; details: A549, 72 h, read-out: GI
# A549 [10] = test: Growth inhibition of Homo sapiens (human) A549 cells at 10^-4 mol/l after 72 hr by MTT assay; details: A549, 72 h, read-out: GI
SMILES,inhibition of growth at 1 µM (A549 [1]),inhibition of growth at 0.01 µM (A549 [2]),inhibition of growth at 100 µM (P388 [3]),inhibition of growth at 0.01 µM (P388 [4]),inhibition of growth at 0.1 µM (P388 [5]),inhibition of growth at 1 µM (P388 [6]),inhibition of growth at 10 µM (P388 [7]),inhibition of growth at 10 µM (A549 [8]),inhibition of growth at 0.1 µM (A549 [9]),inhibition of growth at 100 µM (A549 [10])
COc1cc([C@@H]2c3cc4c(cc3[C@@H](OC(=O)c3cccnc3Cl)[C@H]3COC(=O)[C@H]23)OCO4)cc(OC)c1O [4-O-DEMETHYLEPIPODOPHYLLOTOXINYL-2'-CHLORONICOTINATE],69.8%,56.6%,100%,9.1%,12.8%,72.3%,84.7%,78.1%,62.5%,92.5%
COc1cc([C@@H]2c3cc4c(cc3[C@@H](OC(=O)c3cncc(Br)c3)[C@H]3COC(=O)[C@H]23)OCO4)cc(OC)c1O [4-O-DEMETHYLEPIPODOPHYLLOTOXINYL-5'-BROMONICOTINATE],78.4%,71%,100%,2%,63.5%,66.1%,87.4%,82%,74.6%,87.3%
COc1cc([C@@H]2c3cc4c(cc3[C@@H](OC(=O)c3ccc(Cl)nc3)[C@H]3COC(=O)[C@H]23)OCO4)cc(OC)c1O [4-O-DEMETHYLEPIPODOPHYLLOTOXINYL-6'-CHLORONICOTINATE],72.5%,59.3%,100%,20.2%,28.4%,73.4%,81.1%,93.9%,70.7%,85.4%
COc1cc([C@@H]2c3cc4c(cc3[C@@H](OC(=O)c3ccncc3)[C@H]3COC(=O)[C@H]23)OCO4)cc(OC)c1O [4-O-DEMETHYLEPIPODOPHYLLOTOXINYL-ISONICOTINATE],66.4%,54%,100%,19.8%,53.5%,76.5%,86.9%,67.8%,66.1%,95.1%
COc1cc([C@@H]2c3cc4c(cc3[C@@H](OC(=O)c3cccnc3)[C@H]3COC(=O)[C@H]23)OCO4)cc(OC)c1O [4-O-DEMETHYLEPIPODOPHYLLOTOXINYL-NICOTINATE],74%,71.9%,100%,4.4%,71.4%,72.1%,87.9%,79.9%,72.6%,91.4%
COc1cc([C@@H]2c3cc4c(cc3[C@@H](OC(=O)c3ccccn3)[C@H]3COC(=O)[C@H]23)OCO4)cc(OC)c1O [4-O-DEMETHYLEPIPODOPHYLLOTOXINYL-PICOLINATE],73.7%,53.7%,100%,39.7%,68%,73.5%,88.6%,78.8%,56%,91.6%
COc1cc([C@@H]2c3cc4c(cc3[C@H](OC(=O)c3cccnc3Cl)[C@H]3COC(=O)[C@H]23)OCO4)cc(OC)c1OC [4-O-PODOPHYLLOTOXINYL-2'-CHLORONICOTINATE],81.3%,79.5%,87.3%,80.6%,84.7%,85%,85.8%,82.5%,80.4%,86.6%
COc1cc([C@@H]2c3cc4c(cc3[C@H](OC(=O)c3cncc(Br)c3)[C@H]3COC(=O)[C@H]23)OCO4)cc(OC)c1OC [4-O-PODOPHYLLOTOXINYL-5'-BROMONICOTINATE],82.7%,77.3%,97.7%,80.6%,82.8%,85%,87.4%,84.7%,80.9%,91.1%
COc1cc([C@@H]2c3cc4c(cc3[C@H](OC(=O)c3ccc(Cl)nc3)[C@H]3COC(=O)[C@H]23)OCO4)cc(OC)c1OC [4-O-PODOPHYLLOTOXINYL-6'-CHLORONICOTINATE],85.9%,81.5%,92.1%,80.1%,84.3%,85%,88.3%,87%,83%,87.9%
COc1cc([C@@H]2c3cc4c(cc3[C@H](OC(=O)c3ccncc3)[C@H]3COC(=O)[C@H]23)OCO4)cc(OC)c1OC [4-O-PODOPHYLLOTOXINYL-ISONICOTINATE],82.6%,81.4%,89%,83.8%,84.8%,84.8%,85.1%,84.4%,81.8%,89.2%
COc1cc([C@@H]2c3cc4c(cc3[C@H](OC(=O)c3cccnc3)[C@H]3COC(=O)[C@H]23)OCO4)cc(OC)c1OC [4-O-PODOPHYLLOTOXINYL-NICOTINATE],82.8%,81%,87.5%,83.4%,83.8%,84.1%,84.8%,84.9%,82.2%,87.5%
COc1cc([C@@H]2c3cc4c(cc3[C@H](OC(=O)c3ccccn3)[C@H]3COC(=O)[C@H]23)OCO4)cc(OC)c1OC [4-O-PODOPHYLLOTOXINYL-PICOLINATE],82.3%,81.4%,87.7%,85.4%,85.5%,86%,87%,84%,81.8%,89.2%
COc1cc([C@@H]2c3cc4c(cc3[C@@H](O[C@@H]3O[C@@H]5CO[C@@H](C)O[C@H]5[C@H](O)[C@H]3O)[C@H]3COC(=O)[C@H]23)OCO4)cc(OC)c1O [ETOPOSIDE],45%,0%,99.2%,1.8%,6%,25.5%,70.6%,50.7%,0%,97.5%
